Results on 37 compounds are retold here after patent US11319322B2, “Substituted aryl ether compound, preparation method thereof, pharmaceutical composition and use thereof” (Xiamen University, priority 2017, dated 2022).

Assay type in all cases: cell-based
Assay [1] concerns the target T1, CCDC6-RET-BaF3 (Homo sapiens, UniProt P07949).
T1 construct: fused on or other part: Q16204 (Coiled-coil domain-containing protein 6)
Nature of the assay: Growth inhibition of CCDC6-RET-BaF3 cells stably transfected with kinase (MTS). The settings on record: 48 h, read-out: CCDC6-RET (IC50/nM). The gist of the method: (§1)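 BaF3 cells stably expressing CCDC6-RET or KIF5B-RET, or parental BaF3, 2×10^4 cells/well, treated 48 h at 37 °C with 8-point 1:3 dilutions from 10 μM (0.1% DMSO). MTS/PES added 1–4 h, OD490 read; inhibition versus DMSO and blank gave IC50.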

Assay [2] addresses T2, KIF5B-RET-BaF3 (Homo sapiens, UniProt P07949).
T2 construct: fused on or other part: P33176 (Kinesin-1 heavy chain)
Nature of the assay: Growth inhibition of KIF5B-RET-BaF3 cells stably transfected with kinase (MTS). The settings on record: 48 h, read-out: KIF5B-RET (IC50/nM). Summed up:
as §1

The test system of assay [3] is wild-type BaF3. The assay is described as follows: Growth inhibition of wild-type BaF3 cells, broad-spectrum toxicity (MTS). The settings on record: Mus musculus, 48 h, read-out: WT Ba/F3 (IC50/nM). As to the method:
Growth inhibitory activity of compounds on cell lines stably transfected with kinase
The activity of compounds against kinase RET is evaluated by their effect of inhibiting growth of cell lines stably transfected with kinase CCDC6-RET-BaF3, KIF5B-RET-BaF3, and wild-type BaF3 (Proc. Natl. Acad. Sci. USA., 2006, 103, 3153-8.). The growth of the cell lines stably transfected with kinase CCDC6-RET-BaF3, KIF5B-RET-BaF3 depends on their kinase activity. If a compound can inhibit the activity of the kinase RET per se or the activity of the RET signaling pathway, the compound can inhibit the growth of BaF3 cells stably transfected with kinase. […] Therefore, a larger ratio between IC50 of a compound to wild-type BaF3 and IC50 of the compound to the cell lines stably transfected with kinase CCDC6-RET-BaF3, KIF5B-RET-BaF3 indicates better targeting.
The specific test method is given as follows:
1) Medium: DMEM (Dulbecco's modified eagle medium) or RPMI 1640 (containing 10% fetal bovine serum, 100 μg/mL ampicillin, 100 μg/mL streptomycin).
2) Reagents: MTS reaction solution (containing 2 mg/mL of MTS [3-(4,5-dimethylthiazol-2-yl)-5-(3-carboxymethoxyphenyl)-2-(4-sulfophenyl)-2H-tetrazolium, inner Salt]; 100 μg/mL PES (phenazine […])).
3) Compound test: cells stably transfected with kinase (CCDC6-RET-BaF3, KIF5B-RET-BaF3) or wild-type BaF3 cells (2×10^4 cells/well) were incubated into a 96-well culture plate, the volume of cell culture fluid was 90 μL, and then 10 μL of the compound at each gradient concentration was added (the highest concentration was 10 μM, which was diluted stepwise by ⅓, and 8 concentration points were set in total; the system contained 0.1% DMSO (dimethyl sulfoxide)). The cell plate with uniformly mixed compound was cultured in a cell culture incubator (37° C.; 5% CO2) for 48 h, then 20 μL of MTS reaction solution was added, uniformly mixed and incubated in the cell culture incubator (37° C.; 5% CO2) for 1-4 hr, OD values at 490 nm were measured by a microplate reader (VARIOSKAN FLASH, Thermo). Three parallels were set in each group of experiments, with 0.1% (a final concentration) DMSO as a negative control, and a medium without cells or compounds as a blank control. The cell growth inhibition rate was calculated by the following formula: Cell growth inhibition rate %=1−(ODexperimental group−ODblank group)/(ODnegative group−ODblank group)×100%
4) IC50 calculation: The semi-inhibitory concentration of the compound acting on cell growth was calculated using GradPad Prism 5 software according to the measured cell growth inhibition rate.

T2 sequence (P07949 whole entry, change not shown, the tested form may be a part): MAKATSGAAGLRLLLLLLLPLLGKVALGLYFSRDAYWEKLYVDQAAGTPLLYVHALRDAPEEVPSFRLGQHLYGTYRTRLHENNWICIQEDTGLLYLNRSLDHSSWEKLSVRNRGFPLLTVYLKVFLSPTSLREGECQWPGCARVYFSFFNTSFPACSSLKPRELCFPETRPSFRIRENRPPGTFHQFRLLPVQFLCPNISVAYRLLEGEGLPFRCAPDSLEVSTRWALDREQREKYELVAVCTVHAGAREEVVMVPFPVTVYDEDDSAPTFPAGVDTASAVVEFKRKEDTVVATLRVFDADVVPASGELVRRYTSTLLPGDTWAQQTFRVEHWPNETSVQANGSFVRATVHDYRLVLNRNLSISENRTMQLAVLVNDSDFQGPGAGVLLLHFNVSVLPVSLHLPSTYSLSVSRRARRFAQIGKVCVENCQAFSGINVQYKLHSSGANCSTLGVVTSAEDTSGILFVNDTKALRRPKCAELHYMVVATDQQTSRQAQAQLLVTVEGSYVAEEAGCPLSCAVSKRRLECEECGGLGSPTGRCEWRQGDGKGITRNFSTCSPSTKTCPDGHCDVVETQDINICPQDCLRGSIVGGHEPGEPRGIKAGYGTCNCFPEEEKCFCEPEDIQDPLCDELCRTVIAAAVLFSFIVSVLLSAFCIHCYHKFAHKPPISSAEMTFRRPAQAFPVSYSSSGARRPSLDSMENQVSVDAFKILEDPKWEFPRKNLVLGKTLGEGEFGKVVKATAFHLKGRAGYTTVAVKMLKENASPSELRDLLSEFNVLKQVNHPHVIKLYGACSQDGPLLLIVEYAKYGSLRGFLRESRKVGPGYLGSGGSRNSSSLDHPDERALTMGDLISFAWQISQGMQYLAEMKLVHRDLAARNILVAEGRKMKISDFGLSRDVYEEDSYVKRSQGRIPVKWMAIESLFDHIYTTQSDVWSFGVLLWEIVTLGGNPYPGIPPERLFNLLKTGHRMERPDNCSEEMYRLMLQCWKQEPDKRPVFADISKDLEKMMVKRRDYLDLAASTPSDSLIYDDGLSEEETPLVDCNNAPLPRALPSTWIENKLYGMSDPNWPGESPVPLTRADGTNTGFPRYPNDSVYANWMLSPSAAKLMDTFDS
T1 sequence (P07949 whole entry, change not shown, the tested form may be a part): as above

Consider `Cn1cnc2c(Oc3cccc(C(=O)Nc4cccc(C(F)(F)F)c4)c3)nc(-c3ccncc3)nc21` [I-d-2], for which the GI50 in assay [1] came out at 1540 nM; in assay [2], 5710 nM. Further, in assay [3], the IC50 is > 10000 nM.
`Cc1ccc(Oc2nc(-c3ccccc3)nc3c2ncn3C)cc1NC(=O)c1ccc(CN2CCN(C)CC2)c(C(F)(F)F)c1` [I-j-2]: the figures for the GI50 in assay [1] and in assay [2] were 2130 nM and 1580 nM, respectively. Also, the IC50 in assay [3] stood at 2110 nM.
As for `Cc1ccc(Oc2nc(-c3ccc(Cl)cc3)nc3c2ncn3C)cc1NC(=O)c1ccc(CN2CCN(C)CC2)c(C(F)(F)F)c1` [I-j-3], the GI50 stood at 1420 nM in assay [1] and 1430 nM in assay [2]. Besides, the IC50 in assay [3] was 1770 nM.
For `Cc1ccc(Oc2nc(-c3ccc(O)cc3)nc3c2ncn3C)cc1NC(=O)c1ccc(CN2CCN(C)CC2)c(C(F)(F)F)c1` [I-j-4] the same measures were 1010 nM, 1610 nM and 1790 nM.
The matching figures for `Cc1ccc(Oc2nc(-c3ccc(N)cc3)nc3c2ncn3C)cc1NC(=O)c1ccc(CN2CCN(C)CC2)c(C(F)(F)F)c1` [I-j-5]: 1880 nM, 2370 nM and 4200 nM.
The matching figures for `Cc1ccc(Oc2nc(-c3ccoc3)nc3c2ncn3C)cc1NC(=O)c1ccc(CN2CCN(C)CC2)c(C(F)(F)F)c1` [I-j-6]: 221 nM, 1180 nM and 4220 nM.
As for `CN1CCN(Cc2ccc(NC(=O)c3cccc(Oc4nc(-c5cccnc5)nc5c4ncn5C)c3)cc2C(F)(F)F)CC1` [I-l-2], the GI50 in assay [1] is 3610 nM. Moreover, the IC50 in assay [3] amounted to 1360 nM.
With `Cc1ccc(Oc2nc(-c3ccc(O)cc3)nc3nn(C)cc23)cc1C(=O)Nc1ccc(CN2CCN(C)CC2)c(C(F)(F)F)c1` [IV-n-7], the results for the GI50 in assay [1] and in assay [2] were 2810 nM and 3940 nM, respectively.
Turning to `Cc1ccc(Oc2nc(-c3cccc(N)c3)nc3nn(C)cc23)cc1C(=O)Nc1ccc(CN2CCN(C)CC2)c(C(F)(F)F)c1` [IV-n-8], the GI50 in assay [1] turned out to be 2090 nM; in assay [2], 1620 nM.
The matching figures for `Cc1ccc(Oc2nc(-c3ccc(N)cc3)nc3nn(C)cc23)cc1C(=O)Nc1ccc(CN2CCN(C)CC2)c(C(F)(F)F)c1` [IV-n-9]: 1830 nM and 1570 nM.
`Cc1ccc(Oc2nc(-c3ccoc3)nc3nn(C)cc23)cc1C(=O)Nc1ccc(CN2CCN(C)CC2)c(C(F)(F)F)c1` [IV-n-10]: the GI50 in assay [1] was 2160 nM; in assay [2], 1840 nM.
The matching figures for `Cc1ccc(Oc2nc(-c3ccsc3)nc3nn(C)cc23)cc1C(=O)Nc1ccc(CN2CCN(C)CC2)c(C(F)(F)F)c1` [IV-n-11]: 5220 nM and 4210 nM.
For `CN1CCN(Cc2ccc(NC(=O)c3cc(Oc4nc(-c5cccnc5)nc5nn(C)cc45)ccc3Cl)cc2C(F)(F)F)CC1` [IV-o-1], the GI50 turned out to be 1980 nM in assay [1] and 1720 nM in assay [2].
The matching figures for `CN1CCN(Cc2ccc(NC(=O)c3cc(Oc4nc(-c5ccncc5)nc5nn(C)cc45)ccc3Cl)cc2C(F)(F)F)CC1` [IV-o-2]: 88.6 nM and 12.1 nM.
For `CN1CCN(Cc2ccc(NC(=O)c3cc(Oc4nc(-c5ccccc5)nc5nn(C)cc45)ccc3Cl)cc2C(F)(F)F)CC1` [IV-o-3] the same measures were 4310 nM and 4180 nM.
On to `CN1CCN(Cc2ccc(NC(=O)c3cc(Oc4nc(-c5cccc(Cl)c5)nc5nn(C)cc45)ccc3Cl)cc2C(F)(F)F)CC1` [IV-o-4], for which the GI50 in assay [1] came out at 4280 nM; in assay [2], 3110 nM.
In the case of `CN1CCN(Cc2ccc(NC(=O)c3cc(Oc4nc(-c5ccc(Cl)cc5)nc5nn(C)cc45)ccc3Cl)cc2C(F)(F)F)CC1` [IV-o-5], the GI50 in assay [1] was found to be 4090 nM; in assay [2] it was 3390 nM.
With `CN1CCN(Cc2ccc(NC(=O)c3cc(Oc4nc(-c5cccc(O)c5)nc5nn(C)cc45)ccc3Cl)cc2C(F)(F)F)CC1` [IV-o-6], the GI50 in assay [1] amounted to 4020 nM; in assay [2], 3400 nM.
Turning to `CN1CCN(Cc2ccc(NC(=O)c3cc(Oc4nc(-c5ccc(O)cc5)nc5nn(C)cc45)ccc3Cl)cc2C(F)(F)F)CC1` [IV-o-7], the figures for the GI50 in assay [1] and in assay [2] were 1510 nM and 1610 nM, respectively.
As for `CN1CCN(Cc2ccc(NC(=O)c3cc(Oc4nc(-c5cccc(N)c5)nc5nn(C)cc45)ccc3Cl)cc2C(F)(F)F)CC1` [IV-o-8], the GI50 in assay [1] was found to be 172 nM; in assay [2], 152 nM.
The matching figures for `CN1CCN(Cc2ccc(NC(=O)c3cc(Oc4nc(-c5ccc(N)cc5)nc5nn(C)cc45)ccc3Cl)cc2C(F)(F)F)CC1` [IV-o-9]: 4810 nM and 4360 nM.
On to `CN1CCN(Cc2ccc(NC(=O)c3cc(Oc4nc(-c5ccoc5)nc5nn(C)cc45)ccc3Cl)cc2C(F)(F)F)CC1` [IV-o-10], for which the GI50 in assay [1] was determined as 4290 nM; in assay [2], 3760 nM.
For `CN1CCN(Cc2ccc(NC(=O)c3cc(Oc4nc(-c5ccsc5)nc5nn(C)cc45)ccc3Cl)cc2C(F)(F)F)CC1` [IV-o-11], the GI50 in assay [1] came to 3030 nM; in assay [2], 1620 nM.
For `Cc1ccc(Oc2cc(-c3cn[nH]c3)nc3[nH]ccc23)cc1C(=O)Nc1ccc(CN2CCN(C)CC2)c(C(F)(F)F)c1` [V-n-12] the same measures were 566 nM and 673 nM.
With `Cc1ccc(Oc2cc(-c3ccncc3)nc3c2ccn3C)cc1C(=O)Nc1ccc(CN2CCN(C)CC2)c(C(F)(F)F)c1` [V-n-16], the GI50 was 472 nM in assay [1] and 388 nM in assay [2].
For `Cc1ccc(Oc2cc(-c3ccncc3)nc3[nH]ccc23)cc1C(=O)Nc1cc(CN2CCN(C)CC2)cc(C(F)(F)F)c1` [V-r-1] the same measures were 2960 nM and 2810 nM.
The matching figures for `Cc1ccc(NC(=O)c2ccc(CN3CCN(C)CC3)c(C(F)(F)F)c2)cc1Oc1nc(-c2ccncc2)nc2ccsc12` [VI-i-2]: 5700 nM and 7420 nM.
The matching figures for `CN1CCN(Cc2ccc(C(=O)Nc3cccc(Oc4cc(-c5ccncc5)nc5sccc45)c3)cc2C(F)(F)F)CC1` [VII-h-2]: 637 nM and 1080 nM.
For the compound `Cc1ccc(NC(=O)c2ccc(CN3CCN(C)CC3)c(C(F)(F)F)c2)cc1Oc1cc(-c2ccncc2)nc2sccc12` [VII-i-2], the GI50 in assay [1] turned out to be 1360 nM; in assay [2], 1330 nM.
As for `Cc1ccc(Oc2cc(-c3cccnc3)nc3sccc23)cc1NC(=O)c1ccc(CN2CCN(C)CC2)c(C(F)(F)F)c1` [VII-j-1], the GI50 in assay [1] stood at 811 nM; in assay [2], 1280 nM.
The matching figures for `Cc1ccc(Oc2cc(-c3ccncc3)nc3sccc23)cc1NC(=O)c1ccc(CN2CCN(C)CC2)c(C(F)(F)F)c1` [VII-j-2]: 95.6 nM and 189 nM.
The matching figures for `CN1CCN(Cc2ccc(NC(=O)c3cccc(Oc4cc(-c5cccnc5)nc5sccc45)c3)cc2C(F)(F)F)CC1` [VII-l-1]: 1020 nM and 1350 nM.
The matching figures for `CN1CCN(Cc2ccc(NC(=O)c3cccc(Oc4cc(-c5ccncc5)nc5sccc45)c3)cc2C(F)(F)F)CC1` [VII-l-2]: 215 nM and 315 nM.
As to `Cc1ccc(Oc2cc(-c3cccnc3)nc3sccc23)cc1C(=O)Nc1ccc(CN2CCN(C)CC2)c(C(F)(F)F)c1` [VII-n-1], the GI50 in assay [1] was 1690 nM; in assay [2], 1780 nM.
For `Cc1ccc(Oc2cc(-c3ccncc3)nc3sccc23)cc1C(=O)Nc1ccc(CN2CCN(C)CC2)c(C(F)(F)F)c1` [VII-n-2], the GI50 in assay [1] was 221 nM; in assay [2], 405 nM.
The matching figures for `CN1CCN(Cc2ccc(NC(=O)c3cc(Oc4cc(-c5cccnc5)nc5sccc45)ccc3Cl)cc2C(F)(F)F)CC1` [VII-o-1]: 1570 nM and 1630 nM.
For `CN1CCN(Cc2ccc(NC(=O)c3cc(Oc4cc(-c5ccncc5)nc5sccc45)ccc3Cl)cc2C(F)(F)F)CC1` [VII-o-2] the same measures were 326 nM and 499 nM.
